Measured values published in patent publication US8247211B2, “Glycopeptide antibiotics” (American Cyanamid Company, priority 2001, dated 2012).

Assays:
Test in all cases: In vitro antibacterial evaluation: minimum inhibitory concentration (MIC), broth dilution method
Format in all cases: cell-based
[1] = tested on: Enterococcus sp.; conditions: 18 hours at 35° C.
In short: (§1)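 Test strains, among them recent clinical isolates carrying methicillin, penicillin and/or vancomycin resistance, were inoculated at 5×10^5 CFU/mL. A broth dilution series spanning 64-0.06 μg/mL in Muller-Hinton II […] (NCCLS M7-A2) defined the MIC as the lowest growth-inhibiting concentration.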

[2] = tested on: Escherichia coli; conditions: 18 hours at 35° C.
In short: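 Broth dilution per NCCLS M7-A2 in Muller-Hinton II […], inoculum 5×10^5 CFU/mL, antibiotic tested over 64-0.06 μg/mL. MIC is taken as the lowest concentration that inhibits growth. Panel includes recent clinical isolates resistant to methicillin, penicillin and/or vancomycin.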

[3] = tested on: Staphylococcus sp.
In short: as §1

[4] = tested on: Streptococcus sp.; conditions: 18 hours at 35° C.
In short: as §1

[5] = broth dilution, inoculum 5×10^5 CFU/mL

CC(c1ccccc1)C1NC(=O)CNC(=O)C(CO)NC(=O)C(C(O)C2CNC(=N)N2C2OC(CO)C(O)C(O)C2O)NC(=O)C(C(O)C2CNC(=N)N2)NC(=O)C(Cc2ccc(OC3OC(CO)C(OC4OC5COC(c6ccccc6)OC5C(O)C4O)C(O)C3O)c(I)c2)NC1=O (stereo not drawn) [Example 196, Cyclo[glycyl-β-methylphenylalanyl-O-[4-O-(4,6-O-benzylidenehexopyranosyl)hexopyranosyl]-3-iodotyrosyl-3-(2-iminoimidazolidin-4-yl)seryl-3-(3-hexopyranosyl-2-iminoimidazolidin-4-yl)-serylseryl]]
32 µg/mL: MIC Enterococcus avium (GC 4558) ([1]; Enterococcus avium (GC 4558)) | MIC Enterococcus avium (GC 4558) [1, 5] | MIC Staphylococcus haemolyticus (GC 4546) ([3]; strain GC 4546) | MIC Coagulase Negative Staphylococcus (GC 4547) ([3]; strain GC 4547) | MIC Streptococcus pyogenes (GC 4563) ([4]; Streptococcus pyogenes (GC 4563)) | MIC Streptococcus pyogenes (GC 4563) [4, 5]
>64 µg/mL: MIC Enterococcus faecalis (ATCC 29212) ([1]; Enterococcus faecalis (ATCC 29212)) | MIC Enterococcus faecalis (GC 2242) ([1]; Enterococcus faecalis (GC 2242)) | MIC Enterococcus faecalis (GC 2691) ([1]; Enterococcus faecalis (GC 2691)) | MIC Enterococcus faecalis (GC 3059) ([1]; Enterococcus faecalis (GC 3059)) | MIC Enterococcus faecalis (GC 4552) ([1]; Enterococcus faecalis (GC 4552)) | MIC Enterococcus faecalis (GC 4554) ([1]; Enterococcus faecalis (GC 4554)) | MIC Enterococcus faecalis (GC 6189) ([1]; Enterococcus faecalis (GC 6189)) | MIC Enterococcus faecium (GC 4556) ([1]; Enterococcus faecium (GC 4556)) | MIC Enterococcus faecalis (ATCC 29212) [1, 5] | MIC Enterococcus faecalis (GC 2242) [1, 5] | MIC Enterococcus faecalis (GC 2691) [1, 5] | MIC Enterococcus faecalis (GC 3059) [1, 5] | MIC Enterococcus faecalis (GC 4552) [1, 5] | MIC Enterococcus faecalis (GC 4554) [1, 5] | MIC Enterococcus faecalis (GC 6189) [1, 5] | MIC Enterococcus faecium (GC 4556) [1, 5] | MIC Staphylococcus aureus (ATCC 29213) ([3]; strain ATCC 29213) | MIC Staphylococcus aureus (GC 1131) ([3]; strain GC 1131) | MIC Staphylococcus aureus (GC 3051) ([3]; strain GC 3051) | MIC Staphylococcus aureus (GC 3053) ([3]; strain GC 3053) | MIC Staphylococcus aureus (GC 4542) ([3]; strain GC 4542) | MIC Staphylococcus aureus-SMITH (GC 4543) ([3]; strain GC 4543) | MIC Staphylococcus aureus (GC 4544) ([3]; strain GC 4544) | MIC Coagulase Negative Staphylococcus (GC 4551) ([3]; strain GC 4551) | MIC Streptococcus agalactiae (GC 4564) ([4]; Streptococcus agalactiae (GC 4564)) | MIC Streptococcus agalactiae (GC 4564) [4, 5]
64 µg/mL: MIC Enterococcus faecalis (GC 4553) ([1]; Enterococcus faecalis (GC 4553)) | MIC Enterococcus faecium (GC 2243) ([1]; Enterococcus faecium (GC 2243)) | MIC Enterococcus faecalis (GC 4553) [1, 5] | MIC Enterococcus faecium (GC 2243) [1, 5] | MIC Escherichia coli (ATCC 25922) ([2]; Escherichia coli (ATCC 25922)) | MIC Escherichia coli (GC 4559) ([2]; Escherichia coli (GC 4559)) | MIC Staphylococcus aureus (GC 4541) ([3]; strain GC 4541) | MIC Staphylococcus aureus (GC 4545) ([3]; strain GC 4545) | MIC Coagulase Negative Staphylococcus (GC 4548) ([3]; strain GC 4548) | MIC Coagulase Negative Staphylococcus (GC 4549) ([3]; strain GC 4549) | MIC Coagulase Negative Staphylococcus (GC 6257) ([3]; strain GC 6257) | MIC Streptococcus pneumoniae (ATCC 6301) ([4]; Streptococcus pneumoniae (ATCC 6301)) | MIC Streptococcus pneumoniae (GC 1894) ([4]; Streptococcus pneumoniae (GC 1894)) | MIC Streptococcus pneumoniae (GC 4565) ([4]; Streptococcus pneumoniae (GC 4565)) | MIC Streptococcus pneumoniae (ATCC 6301) [4, 5] | MIC Streptococcus pneumoniae (GC 1894) [4, 5] | MIC Streptococcus pneumoniae (GC 4565) [4, 5]
8 µg/mL: MIC Enterococcus faecium (GC 4557) ([1]; Enterococcus faecium (GC 4557)) | MIC Enterococcus faecium (GC 4557) [1, 5] | MIC Escherichia coli (GC 4560) ([2]; Escherichia coli (GC 4560))
